According to ChEMBL document CHEMBL1909046, “DrugMatrix in vitro pharmacology data”:

Key:
[1] = target: T1, C-X-C chemokine receptor type 1 (Homo sapiens, UniProt P25024); further: in other assays of this panel Not Active means under 50% inhibition at 10 µM
T1 sequence (P25024 whole entry): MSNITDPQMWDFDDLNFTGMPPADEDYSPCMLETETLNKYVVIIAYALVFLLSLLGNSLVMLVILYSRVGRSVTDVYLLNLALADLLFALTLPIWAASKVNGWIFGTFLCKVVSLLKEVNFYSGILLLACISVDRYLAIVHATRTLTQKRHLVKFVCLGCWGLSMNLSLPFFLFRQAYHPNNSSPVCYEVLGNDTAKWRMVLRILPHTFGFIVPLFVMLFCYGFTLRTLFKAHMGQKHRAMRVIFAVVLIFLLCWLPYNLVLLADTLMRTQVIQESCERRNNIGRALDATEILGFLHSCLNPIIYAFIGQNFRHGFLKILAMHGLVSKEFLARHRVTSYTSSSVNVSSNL

Cytochrome P450 1A2 = target: T2, Cytochrome P450 1A2 (Homo sapiens, UniProt P05177); conditions: bti-tn-5b1-4; further: in other assays of this panel Not Active means under 50% inhibition at 10 µM
T2 sequence (P05177 whole entry): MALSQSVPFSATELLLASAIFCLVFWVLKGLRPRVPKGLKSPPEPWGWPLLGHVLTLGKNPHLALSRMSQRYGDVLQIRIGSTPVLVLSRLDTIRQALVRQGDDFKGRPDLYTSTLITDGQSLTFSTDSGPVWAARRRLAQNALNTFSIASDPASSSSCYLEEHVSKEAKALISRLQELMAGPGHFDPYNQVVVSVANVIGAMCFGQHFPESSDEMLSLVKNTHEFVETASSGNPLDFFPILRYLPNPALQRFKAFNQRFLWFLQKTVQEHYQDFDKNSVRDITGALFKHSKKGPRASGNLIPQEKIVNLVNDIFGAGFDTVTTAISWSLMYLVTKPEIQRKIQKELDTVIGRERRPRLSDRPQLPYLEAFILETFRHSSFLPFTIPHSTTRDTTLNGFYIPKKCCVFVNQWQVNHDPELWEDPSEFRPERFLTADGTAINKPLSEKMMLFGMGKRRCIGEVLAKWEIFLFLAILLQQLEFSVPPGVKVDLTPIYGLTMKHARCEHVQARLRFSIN

[2] = target: Aldo-keto reductase family 1 member B1 (Rattus norvegicus, UniProt P07943); test: biochemical; format: tissue-based, Lens of camera-type eye;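 further: inhibition of aldose reductase enzyme activity, measured with DL-glyceraldehyde as the substrate; in other assays of this panel Not Active means under 50% inhibition at 10 µM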
[3] = target: Beta-1 adrenergic receptor (Homo sapiens, UniProt P08588); test: DRUGMATRIX: Adrenergic beta1 radioligand binding (ligand: [125I] Cyanopindolol); format: cell membranes, CHO-K1, Membrane; conditions: cho-k1; Not Active = under 50% inhibition at 10 µM
Sequence of Beta-1 adrenergic receptor (P08588 whole entry): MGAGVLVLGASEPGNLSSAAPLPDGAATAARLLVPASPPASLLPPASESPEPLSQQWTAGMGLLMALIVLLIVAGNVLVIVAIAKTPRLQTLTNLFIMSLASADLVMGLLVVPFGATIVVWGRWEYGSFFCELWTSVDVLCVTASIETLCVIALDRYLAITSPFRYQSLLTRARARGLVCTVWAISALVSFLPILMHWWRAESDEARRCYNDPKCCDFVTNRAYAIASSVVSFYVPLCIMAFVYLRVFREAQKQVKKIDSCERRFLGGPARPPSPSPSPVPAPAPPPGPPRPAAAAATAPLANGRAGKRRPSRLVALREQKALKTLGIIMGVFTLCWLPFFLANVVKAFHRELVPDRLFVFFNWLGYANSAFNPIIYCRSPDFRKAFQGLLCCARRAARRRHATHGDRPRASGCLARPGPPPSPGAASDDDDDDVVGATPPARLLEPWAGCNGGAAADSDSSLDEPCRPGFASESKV

Endothelin-1 receptor = target: T3, Endothelin-1 receptor (Homo sapiens, UniProt P25101); format: cell membranes, Membrane; conditions: cho-k1; further: in other assays of this panel Not Active means under 50% inhibition at 10 µM
T3 sequence (P25101 whole entry): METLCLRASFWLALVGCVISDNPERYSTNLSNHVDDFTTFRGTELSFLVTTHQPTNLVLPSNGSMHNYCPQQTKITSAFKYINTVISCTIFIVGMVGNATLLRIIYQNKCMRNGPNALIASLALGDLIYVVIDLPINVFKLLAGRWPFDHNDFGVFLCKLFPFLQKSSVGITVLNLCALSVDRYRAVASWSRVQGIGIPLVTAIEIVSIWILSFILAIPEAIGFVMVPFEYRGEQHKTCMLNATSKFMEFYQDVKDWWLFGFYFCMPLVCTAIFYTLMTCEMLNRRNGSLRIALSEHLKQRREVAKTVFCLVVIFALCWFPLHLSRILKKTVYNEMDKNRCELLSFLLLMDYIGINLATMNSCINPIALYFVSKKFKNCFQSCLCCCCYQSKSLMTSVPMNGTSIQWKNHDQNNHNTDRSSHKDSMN

Melanocortin receptor 4 = Melanocortin receptor 4 (Homo sapiens, UniProt P32245); format: cell membranes, Membrane; conditions: hek293; further: in other assays of this panel Not Active means under 50% inhibition at 10 µM
Sequence of Melanocortin receptor 4 (P32245 whole entry): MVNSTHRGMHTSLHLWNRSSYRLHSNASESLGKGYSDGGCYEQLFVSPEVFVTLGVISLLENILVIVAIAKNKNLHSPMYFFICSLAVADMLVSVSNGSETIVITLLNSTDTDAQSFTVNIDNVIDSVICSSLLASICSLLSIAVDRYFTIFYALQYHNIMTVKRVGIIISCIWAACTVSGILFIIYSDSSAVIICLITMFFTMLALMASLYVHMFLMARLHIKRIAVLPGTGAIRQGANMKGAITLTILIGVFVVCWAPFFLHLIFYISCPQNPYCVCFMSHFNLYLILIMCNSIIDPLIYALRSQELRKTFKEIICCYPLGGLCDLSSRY

[4] = target: T4, Alpha-2C adrenergic receptor (Homo sapiens, UniProt P18825); test: DRUGMATRIX: Adrenergic Alpha-2C radioligand binding (ligand: [3H] MK-912); format: cell membranes, Sf9, Membrane
T4 sequence (P18825 whole entry): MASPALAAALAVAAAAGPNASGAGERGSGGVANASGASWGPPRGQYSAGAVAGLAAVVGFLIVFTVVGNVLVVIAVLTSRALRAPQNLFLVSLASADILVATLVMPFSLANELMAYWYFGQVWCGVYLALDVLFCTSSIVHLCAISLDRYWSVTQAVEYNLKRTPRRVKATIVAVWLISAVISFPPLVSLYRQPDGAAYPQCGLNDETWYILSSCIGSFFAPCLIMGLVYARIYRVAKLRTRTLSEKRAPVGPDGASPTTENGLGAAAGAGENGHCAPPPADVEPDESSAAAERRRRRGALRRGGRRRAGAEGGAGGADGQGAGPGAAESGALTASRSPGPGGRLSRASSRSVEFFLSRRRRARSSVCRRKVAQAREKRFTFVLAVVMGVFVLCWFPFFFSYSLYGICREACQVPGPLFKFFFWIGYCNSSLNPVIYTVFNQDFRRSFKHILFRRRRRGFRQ

Cytochrome P450 2A6 = target: T5, Cytochrome P450 2A6 (Homo sapiens, UniProt P11509); conditions: bti-tn-5b1-4; further: in other assays of this panel Not Active means under 50% inhibition at 10 µM
T5 sequence (P11509 whole entry): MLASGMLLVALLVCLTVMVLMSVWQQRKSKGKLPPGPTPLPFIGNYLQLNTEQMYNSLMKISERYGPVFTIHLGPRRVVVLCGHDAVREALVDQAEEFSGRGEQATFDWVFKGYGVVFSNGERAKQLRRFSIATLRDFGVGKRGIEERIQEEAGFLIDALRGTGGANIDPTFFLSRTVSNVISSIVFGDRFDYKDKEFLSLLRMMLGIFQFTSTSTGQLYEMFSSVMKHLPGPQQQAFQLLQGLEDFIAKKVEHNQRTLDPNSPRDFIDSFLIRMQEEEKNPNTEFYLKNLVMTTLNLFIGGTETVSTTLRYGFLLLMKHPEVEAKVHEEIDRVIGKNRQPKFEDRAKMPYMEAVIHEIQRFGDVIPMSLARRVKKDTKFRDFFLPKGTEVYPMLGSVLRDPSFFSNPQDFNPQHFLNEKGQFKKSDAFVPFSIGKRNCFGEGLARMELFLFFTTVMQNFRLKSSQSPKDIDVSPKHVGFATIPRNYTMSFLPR

Row | Compound | IC50 [1] | IC50 (Cytochrome P450 1A2) | Ki (Cytochrome P450 1A2) | IC50 ([2]; read-out: IC50) | IC50 [3] | IC50 (Endothelin-1 receptor) | IC50 (Melanocortin receptor 4) | IC50 ([4]; sf9) | IC50 (Cytochrome P450 2A6) | Ki (Cytochrome P450 2A6) | IC50 [2] | IC50 ([4]; read-out: IC50) | Ki ([4]; read-out: Ki)
1 | COc1ccc2c(c1)c(CC(=O)O)c(C)n2C(=O)c1ccc(Cl)cc1 [INDOMETHACIN] | Not Active | Not Active | Not Active | 3.63 µM | Not Active | Not Active | Not Active | Not Active | Not Active | Not Active | – | – | –
2 | CCc1c2c(nc3ccc(OC(=O)N4CCC(N5CCCCC5)CC4)cc13)-c1cc3c(c(=O)n1C2)COC(=O)[C@]3(O)CC [IRINOTECAN] | Not Active | Not Active | Not Active | – | Not Active | Not Active | Not Active | – | Not Active | Not Active | Not Active | 3.17 µM | 0.461 µM
3 | CC(C(=O)O)c1cccc(C(=O)c2ccccc2)c1 (stereo unspecified) [KETOPROFEN] | Not Active | Not Active | Not Active | – | Not Active | Not Active | Not Active | Not Active | Not Active | Not Active | Not Active | – | –
4 | Nc1ccn([C@@H]2CS[C@H](CO)O2)c(=O)n1 [LAMIVUDINE] | Not Active | Not Active | Not Active | – | Not Active | Not Active | Not Active | Not Active | Not Active | Not Active | Not Active | – | –
5 | O=S(=O)([O-])CCS.[Na+] [MESNA] | Not Active | Not Active | Not Active | – | Not Active | Not Active | Not Active | Not Active | Not Active | Not Active | Not Active | – | –
6 | C#C[C@]1(O)CC[C@H]2[C@@H]3CCc4cc(OC)ccc4[C@H]3CC[C@@]21C [MESTRANOL] | Not Active | Not Active | Not Active | – | Not Active | Not Active | Not Active | Not Active | Not Active | Not Active | Not Active | – | –
7 | Cc1ncc([N+](=O)[O-])n1CCO [METRONIDAZOLE] | Not Active | Not Active | Not Active | – | Not Active | Not Active | Not Active | Not Active | Not Active | Not Active | Not Active | – | –
8 | CC(C)(C(=O)c1cccnc1)c1cccnc1 [METYRAPONE] | Not Active | Not Active | Not Active | – | Not Active | Not Active | Not Active | Not Active | Not Active | Not Active | Not Active | – | –
9 | Oc1ccc(OCc2ccccc2)cc1 [MONOBENZONE] | Not Active | Not Active | Not Active | – | Not Active | Not Active | Not Active | Not Active | Not Active | Not Active | Not Active | – | –
10 | CC(C)(Oc1ccc(C2CCCc3ccccc32)cc1)C(=O)O (stereo unspecified) [NAFENOPIN] | Not Active | Not Active | Not Active | – | Not Active | Not Active | Not Active | Not Active | Not Active | Not Active | Not Active | – | –
11 | CC(C)[C@H]1CC[C@H](C(=O)N[C@H](Cc2ccccc2)C(=O)O)CC1 [NATEGLINIDE] | Not Active | Not Active | Not Active | – | Not Active | Not Active | Not Active | Not Active | Not Active | Not Active | Not Active | – | –
12 | CCN[C@@H]1C[C@H](N)[C@@H](O[C@H]2OC(CN)=CC[C@H]2N)[C@H](O)[C@H]1O[C@H]1OC[C@](C)(O)[C@H](NC)[C@H]1O [NETILMICIN] | Not Active | Not Active | Not Active | – | Not Active | Not Active | Not Active | Not Active | Not Active | Not Active | Not Active | – | –
